Experimental data reported in article PMC5940383, “SMAR1 inhibits Wnt/β-catenin signaling and prevents colorectal cancer progression” (Oncotarget, 2018).
Where a SMILES comes first, the peptide text is derived from it. Where no end group is shown, it is not given here. The star is where a group is joined. Cbz = O=C(OCc1ccccc1)*

B1: rh Wnt3a: recombinant human (rh) Wnt3a ligand (protein, UniProt P56704 19-352, looked up)
Protein Wnt-3a: SYPIWWSLAVGPQYSSLGSQPILCASIPGLVPKQLRFCRNYVEIMPSVAEGIKIGIQECQHQFRGRRWNCTTVHDSLAIFGPVLDKATRESAFVHAIASAGVAFAVTRSCAEGTAAICGCSSRHQGSPGKGWKWGGCSEDIEFGGMVSREFADARENRPDARSAMNRHNNEAGRQAIASHMHLKCKCHGLSGSCEVKTCWWSQPDFRAIGDFLKDKYDSASEMVVEKHRESRGWVETLRPRYTYFKVPTERDLVYYEASPNFCEPNPETGSFGTRDRTCNVSSHGIDGCDLLCCGRGHNARAERRREKCRCVFHWCCYVSCQECTRVYDVHTCK

How the values were obtained:
[1] = test system: SMAR1 expression in HCT116 cells and an array of CRC cell lines; assay: Western blot / confocal: SMAR1 protein expression after peptide treatment; format: cell-based; details: Wnt3a CM or rh Wnt3a ligand (200 ng/mL), LiCl 30 mM for 6 hrs, MG132 10 μM with or without Wnt3a CM
Protocol: (§1) HCT116, SW480, SW620, HCT15 and HT29 cells (obtained from NCCS, Pune) were cultured in DMEM medium with 10% Fetal Bovine Serum (Gibco) and 100 Units of Penicillin Streptomycin antibiotics (Gibco). HCT116 stable cells were generated using GFP-SMAR1, GFP-control and GFP-sh-SMAR1 plasmids. si-HDAC5 plasmid was purchased from Santa Cruz Biotechnology. Conditioned medium were prepared using L cells and L-Wnt3a cells (kind gift from Jomon Joseph, NCCS Pune). After culturing for 7 days supernatant was collected and filtered through 0.22 micron syringe filter. Cells were treated with peptides (provided by Amrita Therapeutics) for 48 hours. Lipofectamine 2000 (Invitrogen) was used for transfection purposes.
(§2) Proteins were extracted using lysis buffer (50 mM Tris-Cl pH 7.5, 5 mM EDTA, 0.5% NP40, 50 mM NaF, 1 mM DTT, 0.2 mM sodium orthovanadate, 0.5 mM PMSF, 150 mM NaCl and 1X Protease Inhibitor cocktail). 40 μg proteins were transferred to PVDF membranes by Western blotting technique and blots were blocked with 5% BSA and incubated in primary antibodies. Blots were then incubated with HRP conjugated secondary antibodies and developed in X-ray films. For IP, proteins extracted were pre-cleared with Protein A/G beads (Invitrogen) and immunoprecipitated overnight with desired antibodies. Protein A/G beads were used to pull-down the protein-antibody complex and western blot was performed to check the interaction.
For confocal studies cells were fixed with 4% para-formaldehyde solution and permeabilized using 0.1% TritonX-100 solution. Cells were incubated with 1:250 dilution SMAR1 (Bethyl) antibody for 2 hours and later with 1:250 dilution Cy3 (Life Technologies) antibody for 1 hour. Coverslips containing cells were mounted using DAPI containing mounting medium (Fluoroshield with DAPI, Sigma). Human colon paraffinized tissue sections were de-paraffinized by heating in a microwave oven and later washed with xylene and alcohol. Antigen retrieval was performed and washed with PBS for further staining with 1:250 SMAR1 (Bethyl) and 1:250 β-catenin (BD Bioscience) antibodies. […]

HCT116 cells = details: 48 h
[2] = NOD-SCID mice, 25 mg/kg body weight intra-peritoneally on alternate days for 21 days, throughout the course of treatment
[3] = test system: β-catenin expression in HCT116 cells; assay: Western blot: β-catenin expression; format: cell-based; details: Wnt3a CM or rh Wnt3a ligand (200 ng/mL)
Protocol: as §1
as §2, with “Protein A/G beads were used to pull-down the protein-antibody complex and western blot was performed to check the interaction.” left out

[4] = test system: β-catenin promoter in HCT116 cells; assay: ChIP: occupancy of SMAR1, HDAC5 and H3K9 Ac at β-catenin promoter; format: cell-based; details: Wnt3a CM stimulation, mean ± SD, n = 3
Protocol: HCT116 cells were transfected with GFP-control, GFP-SMAR1, GFP-sh-SMAR1 or HDAC5 siRNA plasmids. ChIP was performed using Millipore reagents supplied according to the manufacturer's protocol. The protein-DNA complex were immunoprecipitated overnight at 4° C using SMAR1 (Bethyl), HDAC5 (Cell Signaling), H3K9Ac (Cell Signaling) or IgG (Santa Cruz Biotechnology) antibodies (1 μg each). PCR was performed with the primers flanking the binding sites of SMAR1 in β-catenin promoter. […]. The PCR conditions were 95° C for 1 minute, 55° C for 1 minute and 72° C for 1 minute for 35 cycles. The PCR amplicons obtained were run in 1% Agarose (Sigma) gel and documented.

[5] = test system: β-catenin promoter (pEGFP1-β-catenin) in HCT116 cells; assay: Flow cytometry of pEGFP1-β-catenin GFP expression; format: cell-based; details: pEGFP1-β-catenin transfected HCT116 cells, 200 ng/mL rh Wnt3a ligand; n = 3, SD
Description: Genomic DNA was isolated from HCT116 cells and amplified with primers flanking binding sites of SMAR1 in β-catenin promoter. […]. The amplicon was ligated into pEGFP1 vector using T4 DNA ligase (NEB) after restriction digestion with XhoI and KpnI enzymes (NEB). Plasmids were transformed into DH5α E. coli competent cells and positive clones were identified after restriction digestion with XhoI and KpnI. The cloned β-catenin promoter was christened as pEGFP1-β-catenin.
HCT116 cells were co-transfected with FLAG-SMAR1 and pEGFP1-β-catenin plasmids or treated with rh Wnt3a ligand after transfection with pEGFP1-β-catenin. For flow cytometry analysis HCT116 cells were trypsinized using Trypsin-EDTA (Gibco) and washed thrice with PBS buffer. Cells were then passed through cell strainer (BD Falcon) and collected in flow cytometry tubes. GFP expressions were quantitated by subjecting 1 × 10^4 cells to BD FACSCalibur flow cytometry. FL1 channel was used to sort and quantify the GFP cells. Using CellQuest Pro software the histogram plots were derived and the GFP percentages were calculated. The graphs corresponding to the GFP percentage were generated using SigmaPlot software.

Molecule	SMAR1 protein level after treatment [1]	IC50 value (MTT assay) (HCT116 cells)	adverse effects [2]	also measured
[Cl-].[Li+] [LiCl]	failed to downregulate SMAR1	–	–	–
CC(C)C[C@@H](C=O)NC(=O)[C@H](CC(C)C)NC(=O)[C@H](CC(C)C)NC(=O)OCc1ccccc1 [MG132] (Cbz-Leu-Leu-Leu-aldehyde)	SMAR1 protein stability was observed	–	–	–
ATATVNAIRGSVTPAVSQFN [AT-01C]	–	10 µg/mL	no observable adverse effects	–
NAIRGSVTPAVSQFN [AT-01D]	–	9.90 µg/mL	no observable adverse effects	–
Wnt3a	significant downregulation of SMAR1	–	–	β-catenin levels after Wnt3a stimulation [3]: concomitant rise in the β-catenin levels; increased H3K9 Ac occupancy in β-catenin promoter [4]: 4.72 fold; reduced occupancy of HDAC5 in β-catenin promoter [4]: 4.77 fold; reduced occupancy of SMAR1 in β-catenin promoter [4]: 4.54 fold
B1	–	–	–	increase in GFP expression (β-catenin promoter activity) [5]: about 45%
